Laboratory results as given in PMC10794144, “A novel antibiotic class targeting the lipopolysaccharide transporter” (Nature, 2024).
Marks after values point to notes of the source that are not given here.

Key:
[1] = tested on: A. baumannii; assay: MIC, broth microdilution in CAMHB supplemented with human serum, read at 100% growth inhibition; assay type: cell-based, Acinetobacter baumannii
Description: MIC determinations were performed using the broth microdilution method and in line with CLSI guidelines M07 and M100 (refs. [37],[38]). Bacterial inocula were prepared by diluting a 0.5 McFarland suspension in CAMHB or lysogeny broth (LB) specifically for A. baylyi isolates. […] MIC values of all of the tested antibiotics were read as the lowest compound concentration inhibiting bacterial growth by naked eye or beyond which the OD600 ceased to decrease.

[2] = tested on: A. baumannii; assay: Bacterial phenotypic fingerprint profiling; assay type: cell-based, Acinetobacter baumannii; settings: random forest model
Description: Sample preparation and analysis was conducted as previously described[26] for A. baumannii, with the generated and analysed dataset consisting of three independent experiments, n = 3, as the only modification to the protocol.
For the random forest analysis data proximity analysis from 4x and 8x LOED are pooled and the number of datapoints are reduced by down sampling to be equal for all reference conditions the maximal projection of the analysis. b, In the right panel an out-of-bag validation of the random forest classification model is indicated for the reference compounds. […] The degree of frequency of matching prediction correspond to the length of the individual bar segment, where a longer segment represents a higher similarity. […] Source Data

[3] = Human plasma precipitation assay; parameters: key: 0: none; 1: mild; 2: moderate; 3: marked; settings: observed only at 2 mg/mL (0.125–2 mg/mL tested)
Description: For the plasma precipitation assay, test item formulations of compounds were diluted as follows with the vehicle (0.9% aqueous sodium chloride solution): undiluted, 1:2, 1:4, 1:8 and 1:16. These serial dilutions were then added into test tubes containing 0.5 ml of plasma to give a final assay volume of 1 ml with a final concentration of 4 mg ml^−1 assay volume or less. After centrifugation of the samples (1,811g; 10 min; at room temperature), plasma precipitation was visually determined by scoring the resulting pellet (score: 0, none; 1, mild; 2, moderate; 3, marked).

[4] = Five-day repeat dose tolerability study; assay type: in vivo, rat; settings: for Clinical observations: male Wistar rats, n = 4; for Clinical chemistry / Coagulation / Haematology: 5 days
Description: Assessment of tolerability was based on mortality, in-life observations, body weight, food consumption and clinical pathology during the in-life phase. Moreover, gross pathology and histopathology were performed at unscheduled or scheduled euthanasia on day 6.

## CN1C(=O)[C@H](CCCCN)NC(=O)[C@H](CCCN)NCc2cccnc2Sc2cccc(-c3ccc(C(=O)O)cc3)c2CNC(=O)[C@@H]1Cc1c[nH]c2ccccc12 [zosurabalpin]
[1]; Acinetobacter baumannii, 129 clinical isolates, CAMHB + 20% HS, n = 1
  MIC90: 1 µg/mL
[1]; AdeR A91V vs parental
  Fold MIC increase: >4 - 32
[1]; AdeS D128E vs parental
  Fold MIC increase: 2
[1]; AdeS G160C vs parental
  Fold MIC increase: 4
[1]; AdeS G318S vs parental
  Fold MIC increase: 8
[1]; AdeS L197F vs parental
  Fold MIC increase: 4
[1]; AdeS R108S vs parental
  Fold MIC increase: 4
[1]; AdeS R152K vs parental
  Fold MIC increase: 4
[1]; AdeS T66S vs parental
  Fold MIC increase: 4
[1]; LptF (G326_E327)del vs parental
  Fold MIC increase: 64 - 128 ^a
[1]; LptF (I319_K320)N vs parental
  Fold MIC increase: >256
[1]; LptF (K320)del vs parental
  Fold MIC increase: >256
[1]; LptF (K320)dup vs parental
  Fold MIC increase: 256
[1]; LptF (V314_L315)del vs parental
  Fold MIC increase: 128
[1]; LptF A318E vs parental
  Fold MIC increase: 32
[1]; LptF E58G vs parental, CAMHB + 20% HS
  Fold MIC increase: 8
[1]; LptF E58K vs parental
  Fold MIC increase: >256
[1]; LptF E249K vs parental
  Fold MIC increase: 32 - 256 ^a
[1]; LptF I317L vs parental
  Fold MIC increase: 32 - 64
[1]; LptF I317N vs parental
  Fold MIC increase: >256
[1]; LptF I317S vs parental
  Fold MIC increase: 256
[1]; LptF I317T vs parental
  Fold MIC increase: 32
[1]; LptF I323K vs parental
  Fold MIC increase: 64 - 128 ^a
[1]; LptF I323R vs parental
  Fold MIC increase: 4 - 256 ^a
[1]; LptF K320E vs parental
  Fold MIC increase: 256
[1]; LptF K320N vs parental
  Fold MIC increase: 64
[1]; LptF K320Q vs parental
  Fold MIC increase: 32
[1]; LptF K320T vs parental
  Fold MIC increase: 16
[1]; LptF L62H vs parental
  Fold MIC increase: 64 - 256 ^a
[1]; LptF R322C vs parental
  Fold MIC increase: 32 - 128 ^a
[1]; LptF R322G vs parental
  Fold MIC increase: 8 - 16 ^a
[1]; LptF R322L vs parental
  Fold MIC increase: 32 - 64 ^a
[1]; LptF R322S vs parental
  Fold MIC increase: 16
[1]; LptF T121K vs parental
  Fold MIC increase: 8
[1]; LptF W271R vs parental
  Fold MIC increase: 4
[1]; LptF W271S vs parental
  Fold MIC increase: 16
[1]; LptG G40D vs parental
  Fold MIC increase: 8
[1]; LptG L36Q vs parental
  Fold MIC increase: 32
[1]; LpxM IS66 vs parental
  Fold MIC increase: 32
[1]; LpxM K285N vs parental
  Fold MIC increase: 4
[1]; LpxM L44stop vs parental
  Fold MIC increase: 32
[1]; LpxM W78stop vs parental
  Fold MIC increase: 32
[1]; adeS ISAba1 vs parental
  Fold MIC increase: 4 - 32 ^a
[1]; deletion of AGTGTGGAGTA 66nt upstream of adeR vs parental
  Fold MIC increase: 8
[1]; lpxM ISAba1 vs parental
  Fold MIC increase: 32 - 64 ^a
[2]
  Similarity towards RO7202110: > 70%
[3]
  Precipitation score: Observed only at 2 mg/mL^6 (1)
[4]; 0.6 mg/kg slow IV once daily for 5 days
  Clinical observations: Transiently discolored tail after dosing
[4]; 6 mg/kg slow IV once daily for 5 days
  Clinical observations: Transiently discolored tail after dosing, body weight loss
[4]; rats, 0.6 mg/kg IV
  Clinical chemistry: No relevant changes
  Coagulation: No change
  Haematology: No change
[4]; rats, 6 mg/kg IV
  Clinical chemistry: Minimally increased BUN, creatine. Minimally decreased phosphorus
  Coagulation: No change
  Haematology: No change
[4]; rats, slow IV once daily for 5 days
  MTD: 6 mg/kg
